Assay results taken from patent publication US20240417405A1, “Substituted Spiro Derivatives” (Janssen Pharmaceutica NV, priority 2021, published 2024).

What was measured:
[1] = target: T1, menin/MLL (terbium chelate-labeled menin, FITC-MBM1 peptide) (Homo sapiens, UniProt O00255, T541A); assay: Menin/MLL homogenous time-resolved fluorescence (HTRF) assay; type: binding; details: 30 min incubation
T1 construct: Menin (a.a 1-610-6xhis tag)
T1 sequence (O00255 with tags, fused parts or gaps T541A): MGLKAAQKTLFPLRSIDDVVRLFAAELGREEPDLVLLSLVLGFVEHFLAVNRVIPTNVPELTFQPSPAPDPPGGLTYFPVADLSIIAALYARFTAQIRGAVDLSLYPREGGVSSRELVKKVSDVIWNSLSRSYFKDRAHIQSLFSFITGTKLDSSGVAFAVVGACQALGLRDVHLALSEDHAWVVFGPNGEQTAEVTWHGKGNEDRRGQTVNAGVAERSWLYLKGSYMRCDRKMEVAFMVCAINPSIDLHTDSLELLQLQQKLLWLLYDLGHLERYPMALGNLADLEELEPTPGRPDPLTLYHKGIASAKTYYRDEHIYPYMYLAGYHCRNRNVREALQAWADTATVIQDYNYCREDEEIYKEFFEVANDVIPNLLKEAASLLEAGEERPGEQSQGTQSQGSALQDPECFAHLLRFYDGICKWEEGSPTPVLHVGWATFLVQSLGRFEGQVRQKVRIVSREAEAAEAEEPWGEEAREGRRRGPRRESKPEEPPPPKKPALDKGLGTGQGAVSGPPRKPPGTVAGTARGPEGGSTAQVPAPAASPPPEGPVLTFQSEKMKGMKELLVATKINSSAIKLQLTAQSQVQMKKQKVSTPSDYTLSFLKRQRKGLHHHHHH
Procedure, shortened: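 Terbium-labeled menin (aa 1-610, His-tagged; 200 pM) preincubated 30 min with compound, then 75 nM FITC-MBM1 peptide added for 15 min at ambient temperature in pH 7.5 Tris buffer, 0.5% DMSO. HTRF ratio 520/490 nm converted to % inhibition. IC50 came from an 11-point four-fold titration from 10 μM, floor 0.1 nM.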

MOLM14 cells = assay: Proliferation assay, spheroid-like growth, MOLM14 (MLL-AF9 rearranged); type: cell-based, human; details: Homo sapiens, MOLM-14, 192 h, 8 days, confluence as measure of spheroid size, read-out: spheroid assay_OneTime MOLM14 IC50
Procedure, shortened: (§1)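 Cells seeded in ultra-low attachment round-bottom wells (200 MOLM14 or 300 KO-52 per well) with compound at several concentrations, DMSO 0.3%, grown 8 days at 37° C, 5% CO2. Spheroid size taken as confluence from day-8 live-cell images; IC50 from variable-slope fit, DMSO as 0% and high-dose reference compound as 100% effect.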

KO-52 cells = assay: Proliferation assay, spheroid-like growth, KO-52 (MLL wildtype control cell line); type: cell-based, human; details: Homo sapiens, 192 h, KO-52 control cells, 8 days, confluence as measure of spheroid size; read-out: spheroid assay_OneTime KO-52 IC50
Procedure, shortened: as §1

CC(C)[C@H]([C@H]1C[C@@H](NC(=O)C2CC2)C1)N1CC2(CCN(c3ncnnc3Oc3ccc(F)cc3-c3nncn3C3CC3)C2)C1 (single isomer, unassigned) [Compound 307]
IC50 [1]: 0.0007 µM
IC50 (MOLM14 cells): > 0.94 µM
IC50 (KO-52 cells): > 15 µM

CC(C)[C@H]([C@H]1C[C@@H](NC(=O)C2CC2)C1)N1CC2(CCN(c3ncnnc3Oc3ccc(F)cc3-n3ncnc3C3CC3)C2)C1 (single isomer, unassigned) [Compound 308]
IC50 [1]: 0.0002 µM
IC50 (MOLM14 cells): 0.07 µM
IC50 (KO-52 cells): 4.57 µM

CC(C)[C@H]([C@H]1C[C@@H](NC(=O)C2CC2)C1)N1CC2(CCN(c3ncnnc3Oc3ccc(F)cc3-c3n[nH]c(=O)cc3C3CC3)C2)C1 (single isomer, unassigned) [Compound 309]
IC50 [1]: 0.0002 µM
IC50 (MOLM14 cells): 0.022 µM
IC50 (KO-52 cells): 7.39 µM

CC(C)[C@H]([C@H]1C[C@@H](NC(=O)C2(F)CC2)C1)N1CC2(CCN(c3ncnnc3Oc3ccc(F)cc3-c3n[nH]c(=O)cc3C3CC3)C2)C1 (single isomer, unassigned) [Compound 311]
IC50 [1]: 0.0003 µM
IC50 (MOLM14 cells): 0.052 µM
IC50 (KO-52 cells): 9.99 µM

CC(=O)N[C@H]1C[C@@H]([C@@H](C(C)C)N2CC3(CCN(c4ncnnc4Oc4ccc(F)cc4-c4cnccc4C4CC4)C3)C2)C1 (single isomer, unassigned) [Compound 312]
IC50 [1]: 0.0002 µM
IC50 (MOLM14 cells): 0.005 µM
IC50 (KO-52 cells): 1.27 µM

CC(C)[C@H]([C@H]1C[C@]2(CCC(=O)N2)C1)N1CC2(CCN(c3ncnnc3Oc3ccc(F)cc3-c3cncnc3C3CC3)C2)C1 (single isomer, unassigned) [Compound 313]
IC50 [1]: 0.0434 µM
IC50 (MOLM14 cells): > 0.94 µM
IC50 (KO-52 cells): > 15 µM

CC(C)[C@H]([C@H]1C[C@@H](N2CC3(CCN(C)C3=O)C2)C1)N1CC2(CCN(c3ncnnc3Oc3ccc(F)cc3-c3cncnc3C3CC3)C2)C1 (single isomer, unassigned) [Compound 315]
IC50 [1]: 0.0001 µM
IC50 (MOLM14 cells): 0.018 µM
IC50 (KO-52 cells): 1.96 µM

CC(C)[C@H]([C@H]1C[C@@H](N2CC3(COC(=O)N3)C2)C1)N1CC2(CCN(c3ncnnc3Oc3ccc(F)cc3-c3cncnc3C3CC3)C2)C1 (single isomer, unassigned) [Compound 318]
IC50 [1]: 0.0001 µM
IC50 (MOLM14 cells): 0.026 µM
IC50 (KO-52 cells): 6.9 µM

CC(C)[C@H]([C@H]1C[C@]2(COC(=O)N2)C1)N1CC2(CCN(c3ncnnc3Oc3ccc(F)cc3-c3cncnc3C3CC3)C2)C1 (single isomer, unassigned) [Compound 319]
IC50 [1]: 0.0237 µM
IC50 (MOLM14 cells): > 0.94 µM
IC50 (KO-52 cells): > 15 µM

CC(C)[C@@H]([C@H]1C[C@]2(COC(=O)N2)C1)N1CC2(CCN(c3ncnnc3Oc3ccc(F)cc3-c3cncnc3C3CC3)C2)C1 (single isomer, unassigned) [Compound 320]
IC50 [1]: 0.0001 µM
IC50 (MOLM14 cells): 0.028 µM
IC50 (KO-52 cells): 4.6 µM

CC(C)[C@H]([C@H]1C[C@]2(COC(=O)N2)C1)N1CC2(CCN(c3ncnnc3Oc3ccc(F)cc3-c3ncccc3C3CC3)C2)C1 (single isomer, unassigned) [Compound 321]
IC50 [1]: 0.0911 µM
IC50 (MOLM14 cells): > 0.94 µM
IC50 (KO-52 cells): > 15 µM

CC(C)[C@@H]([C@H]1C[C@]2(COC(=O)N2)C1)N1CC2(CCN(c3ncnnc3Oc3ccc(F)cc3-c3ncccc3C3CC3)C2)C1 (single isomer, unassigned) [Compound 322]
IC50 [1]: 0.0003 µM
IC50 (MOLM14 cells): 0.03 µM
IC50 (KO-52 cells): > 15 µM

CC(C)[C@@H]([C@H]1C[C@]2(COC(=O)N2)C1)N1CC2(CCN(c3ncnnc3Oc3ccc(F)cc3-c3nnccc3C3CC3)C2)C1 (single isomer, unassigned) [Compound 324]
IC50 [1]: 0.117 µM
IC50 (MOLM14 cells): > 0.94 µM
IC50 (KO-52 cells): > 15 µM

CC(C)[C@H]([C@H]1C[C@@H](N2CCC3(COC3)C2)C1)N1CC2(CCN(c3ncnnc3Oc3ccc(F)cc3-c3cncnc3C3CC3)C2)C1 (single isomer, unassigned) [Compound 325]
IC50 [1]: 0.0001 µM
IC50 (MOLM14 cells): 0.004 µM
IC50 (KO-52 cells): 4.98 µM

COC1(C(=O)N[C@H]2C[C@@H]([C@@H](C(C)C)N3CC4(CCN(c5ncnnc5Oc5ccc(F)cc5-c5cncnc5C5CC5)C4)C3)C2)CC1 (single isomer, unassigned) [Compound 330]
IC50 [1]: 0.0004 µM
IC50 (MOLM14 cells): 0.13 µM
IC50 (KO-52 cells): 5.9 µM

CO[C@H]1CCN([C@H]2C[C@@H](C(C(C)C)N3CC4(CCN(c5ncnnc5Oc5ccc(F)cc5-c5nnccc5C5CC5)C4)C3)C2)C1 (single isomer, unassigned) [Compound 331]
IC50 [1]: 0.0002 µM
IC50 (MOLM14 cells): 0.003 µM
IC50 (KO-52 cells): 2.85 µM

CC(C)[C@H](C1CCN(CC2COC2)CC1)N1CC2(CCN(c3ncnnc3Oc3ccc(F)cc3-c3cnc(C#N)nc3C3CC3)C2)C1 (single isomer, unassigned) [Compound 333]
IC50 [1]: 0.0001 µM
IC50 (MOLM14 cells): 0.038 µM
IC50 (KO-52 cells): 0.82 µM

Fc1ccc(Oc2nncnc2N2CCC3(C2)CN([C@H](C2CCN(CC4COC4)CC2)C24CC(C2)C4)C3)c(-c2cncnc2C2CC2)c1 (single isomer, unassigned) [Compound 335]
IC50 [1]: 0.0002 µM
IC50 (MOLM14 cells): 0.03 µM
IC50 (KO-52 cells): 3.24 µM

Fc1ccc(Oc2nncnc2N2CCC3(C2)CN([C@@H](C2CCN(CC4COC4)CC2)C24CC(C2)C4)C3)c(-c2cncnc2C2CC2)c1 (single isomer, unassigned) [Compound 336]
IC50 [1]: 0.0006 µM
IC50 (MOLM14 cells): 0.18 µM
IC50 (KO-52 cells): 7.65 µM

O=c1cc(C2CC2)c(-c2cc(F)ccc2Oc2nncnc2N2CCC3(C2)CN([C@@H](C2CCN(CC4COC4)CC2)C24CC(C2)C4)C3)n[nH]1 (single isomer, unassigned) [Compound 339]
IC50 [1]: 0.0004 µM
IC50 (MOLM14 cells): > 0.94 µM
IC50 (KO-52 cells): > 15 µM

CS(=O)(=O)C1CCN([C@H]2C[C@@H]([C@@H](N3CC4(CCN(c5ncnnc5Oc5ccc(F)cc5-c5cncnc5C5CC5)C4)C3)C34CC(C3)C4)C2)CC1 (single isomer, unassigned) [Compound 341]
IC50 [1]: 0.003 µM
IC50 (MOLM14 cells): > 0.94 µM
IC50 (KO-52 cells): > 15 µM

CC(=O)N[C@H]1C[C@@H]([C@H](N2CC3(CCN(c4ncnnc4Oc4ccc(F)cc4-c4cncnc4C4CC4)C3)C2)C23CC(C2)C3)C1 (single isomer, unassigned) [Compound 342]
IC50 [1]: 0.0003 µM
IC50 (MOLM14 cells): 0.082 µM
IC50 (KO-52 cells): 5.84 µM

CC(=O)N[C@H]1C[C@@H]([C@@H](C(C)C)N2CC3(CCN(c4ncnnc4Oc4ccc(F)cc4-c4cnc(C#N)nc4C4CC4)C3)C2)C1 (single isomer, unassigned) [Compound 343]
IC50 [1]: 0.0002 µM
IC50 (MOLM14 cells): 0.015 µM
IC50 (KO-52 cells): 1.14 µM

CC(C)[C@@H]([C@H]1CC[C@@H](NC(=O)C2CC2)C1)N1CC2(CCN(c3ncnnc3Oc3ccc(F)cc3-c3cncnc3C3CC3)C2)C1 (single isomer, unassigned) [Compound 344]
IC50 [1]: 0.0001 µM
IC50 (MOLM14 cells): 0.054 µM
IC50 (KO-52 cells): 1.59 µM

CC(C)[C@H]([C@H]1C[C@H](N2CCC2)C1)N1CC2(CCN(c3ncnnc3Oc3ccc(F)cc3-c3cncnc3C3CC3)C2)C1 (single isomer, unassigned) [Compound 345]
IC50 [1]: 0.001 µM
IC50 (MOLM14 cells): 0.055 µM
IC50 (KO-52 cells): 7.4 µM

CC(C)[C@@H]([C@H]1C[C@H](N2CCC2)C1)N1CC2(CCN(c3ncnnc3Oc3ccc(F)cc3-c3cncnc3C3CC3)C2)C1 (single isomer, unassigned) [Compound 346]
IC50 [1]: 0.0023 µM
IC50 (MOLM14 cells): 0.7 µM
IC50 (KO-52 cells): > 15 µM

CC(C)[C@H]([C@H]1C[C@@H](N(C)CCC(=O)N(C)C)C1)N1CC2(CCN(c3ncnnc3Oc3ccc(F)cc3-c3cncnc3C3CC3)C2)C1 (single isomer, unassigned) [Compound 348]
IC50 [1]: 0.0002 µM
IC50 (MOLM14 cells): 0.004 µM
IC50 (KO-52 cells): 10.2 µM

CC(C)[C@H](C1CCN(C[C@H]2C[C@@](C)(O)C2)CC1)N1CC2(CCN(c3ncnnc3Oc3ccc(F)cc3-c3cccnc3C3CC3)C2)C1 (single isomer, unassigned) [Compound 351]
IC50 [1]: 0.0001 µM
IC50 (MOLM14 cells): 0.02 µM
IC50 (KO-52 cells): 1.1 µM

CC(C)[C@H](C1CN(CC2COC2)C1)N1CC2(CCN(c3ncnnc3Oc3ccc(F)cc3-c3cncnc3C3CC3)C2)C1 (single isomer, unassigned) [Compound 354]
IC50 [1]: 0.0074 µM
IC50 (MOLM14 cells): 2.43 µM
IC50 (KO-52 cells): > 15 µM
